# Measurements from patent US10288604B2, “Method for imaging cell using fluorescence-labeled sugar derivative having coumarin derivative bound thereto, and imaging agent” (HIROSAKI UNIVERSITY, priority 2012, dated 2019).
# Experiments:
# [1] = tested on: neurons acutely dissociated from mouse midbrain substantia nigra pars reticulata; assay: Application of fluorescent sugar derivatives to acutely dissociated normal neurons (confocal imaging of uptake); format: cell-based
# Protocol: This was conducted according to a method described in WO 2010/16587.
# Living neurons were acutely dissociated from mouse midbrain substantia nigra pars reticulata, and to which a mixed solution containing 100 μM of 2-PBDG and 20 μM of 2-TRLG was administered at 37° C. for 5 minutes. FIGS. 1A to C represent confocal microscopic images taken immediately before this. A is a fluorescence image in blue wavelength region (Blue channel, wavelength range: 415-580 nm). The position of cells is recognized by autofluorescence. The fluorescence signal intensity is represented by pseudocolor. B is a fluorescence image in red wavelength region (Red channel, 580-740 nm). A and B were obtained both by simultaneous excitation using 405 nm Blue diode laser at an intensity of 60%, wherein photomultipliers (PMT) 1 and 2 were used respectively, and the detection sensitivity of PMT2 was raised higher than PMT1 so that the presence or absence of invasion of 2-TRLG can be detected in a sensitive manner. C is a view in which the bright field image is overlaid on the fluorescence images of A and B.
# An experiment was conducted in the same manner as in Example 2.
# FIGS. 2A to C represent confocal microscopic images immediately before administration of a mixed solution containing 100 μM of 2-PBLG and 20 μM of 2-TRLG at 37° C. to acutely dissociated neurons of mouse midbrain substantia nigra pars reticulata for 5 minutes.
# FIG. 3 represents confocal microscopic images before and after administration of a mixed solution containing 100 μM of 2-HCDG and 20 μM of 2-TRLG at 37° C. for 3 minutes to neurons acutely dissociated from mouse midbrain substantia nigra pars reticulata. A and B are fluorescence images acquired before administration in Blue channel (415-580 nm) and Red channel (580-740 nm), respectively. The excitation wavelength is 405 nm. C is an image of differential interference (Differential Interference contrast, DIC). D is an overlay of the above-described images. E to H are the same as A to D, excepting that E to H are images acquired 4 minutes after initiation of washout of the fluorescence tracer solution after administration of the 2-HCDG+2-TRLG fluorescence tracer solution at 37° C. for 3 minutes. […] Since invasion of 2-TRLG into a cell is not observed, the plasma membrane of the neuron is thought to be maintained intactly.
# Since the optimal excitation wavelength was as very low as 320 nm in this experiment, an image was acquired by Retiga-2000R CCD camera manufactured by Q-imaging via a custom-order filter constituted of an excitation filter (320 nm) (half width: 40 nm), a fluorescence filter (435 nm) (half width: 40 nm) and a dichroic mirror (409 nm), by a xenon lamp, using Nikon Ti-E real time deconvolution microscope.
# [2] = tested on: mouse insulinoma cells (MIN6); assay: Uptake into MIN6 cells and influence of glucose transport inhibitors (fluorescent microplate reader); format: cell-based
# Protocol: Cryopreserved MIN6 cells (cells donated from Professor Miyazaki Junichi of Osaka University and cultured 5 to 8 passages) were subjected to culture according to an ordinary method, and cultures at 7 to 9 passages were used in experiments.
# NaCl 129.0 mM, KCl 4.75 mM, KH2 PO4 1.19 mM, MgSO4.7H2O 1.19 mM, CaCl2.2H2O 1.0 mM, NaHCO3 5.02 mM, D-Glucose 5.6 mM, HEPES 10 mM (pH was adjusted to 7.35 with 1M NaOH). For inhibiting entrance and elimination of a fluorescently labeled glucose via gap junction/hemichannel, 0.1 mM Carbenoxolone (SIGMA #C4790) was added. This KRB solution was used as a solution for preparing a 2-PBLG solution.
# 2-PBDG and 2-PBLG were charged into wells at the third column and the fifth column, respectively, using a 8-channel pipette. Before administration, the autofluorescence of each well was measured beforehand by a fluorescent micro plate reader (Flex Station, manufactured by Molecular Device). The measurement conditions include Bottom Read, Ex 401 nm, Em 453 nm, Cut off 420 nm, Averaging 3, and high sensitivity of Photomultiplier. In the measurement method, Well Scan Mode was used. In Well Scan Mode, the inside of one well was divided into 9 regions of interest (diameter: 1.5 mm) and measurement was performed each independently.
# Next, in wells (3C, 3E, 3G) for measuring the effect of a glucose transport inhibitor phloretin, phloretin (final 150 μM) was administered beforehand from 5 minutes prior to administration of 2-PBDG, while KRB was added to other wells (3B, 3D, 3F). Similar operation was also conducted on the fifth column where 2-PBLG was to be administered. 2-PBDG and 2-PBLG were administrated at 37° C. for 10 minutes.
# After completion of administration, a diluting operation of the fluorescence solution in the well using 300 μL of a KRB solution was repeated set times each for 30 seconds. The repetition time was determined so that the fluorescence intensity detected by wells of A-th row and H-th row set as a control group was equivalent to the fluorescence intensity of a blank well containing no cell, and complete washout was confirmed in every experiment. In the case of 2-PBDG and 2-PBLG, this washout process needed 8 minutes, thus, measurement of fluorescence after administration was carried out 9 minutes after.
# According to this method, even if cells having undergone a loss of the plasma membrane contacted 2-PBDG and 2-PBLG and once took up these compounds into themselves, it is judged that contribution of the increase in the fluorescence intensity to the whole observation area was ignorable level since these compounds had already been washed out of the cells when performing the measurement. This was supported by a pharmacological inhibition experiment separately in which the increase in the fluorescence intensity almost completely disappeared in the presence of an inhibitor. The above-described method was conducted in the same manner also when other inhibitor, for example, cytochalasin B (10 μM) was added.
# The change of fluorescence intensity by administration of a D-glucose derivative (2-PBDG), an L-glucose derivative (2-PBLG) and PB—NH2 prepared by amidating Pacific Blue (PB) chromophore group to MIN6 cells on day of 10 of culture and the effect by a glucose transport inhibitor were confirmed in the same manner as in Example 4. PB—NH2 has the following structure (Ex max. 402 nm, Em max. 451 nm).
# An experiment was conducted in the same manner as in Example 4.
# The experiment was carried out 3 times independently, and the same results were obtained in all cases. In the experiment of administration of 2-PBDM, excitation occurred at a maximum excitation light wavelength of 404 nm and fluorescence was acquired at a maximum emission wavelength of 453 nm.
structure (smiles),measurement,setting,value
"O=C(NC1C(O)OC(CO)[C@H](O)C1O)c1cc2cc(F)c(O)c(F)c2oc1=O (stereo partly drawn) [2-PBLG, 2-Deoxy-2-((6,8-difluoro-7-hydroxycoumarin-3-yl)carboxamido)-L-glucose]",intracellular fluorescence intensity in Blue channel as compared with that before administration,"[1]; 100 μM with 20 μM 2-TRLG, 37° C., 5 minutes, image 4 minutes after initiation of washout",scarcely increased
same,persistence of intracellular blue fluorescence after washout,[1]; images 8 and 20 minutes after initiation of washout,recovered to the autofluorescence level
same,decreased value of fluorescence intensity owing to phloretin (average),"[2]; 100 μM derivative, 150 μM phloretin, MIN6 day 10, increase without phloretin as reference",20.0%
same,effect of phloretin on increase in fluorescence intensity (in words),"[2]; 100 μM derivative, phloretin 150 μM, MIN6 day 10",inhibited the increase in the fluorescence intensity by 2-PBLG slightly
same,difference between fluorescence intensity of 2-PBDG and of 2-PBLG,"[2]; 100 μM each, absence of phloretin, 2-PBDG = 100%",no significant difference
same,fluorescence intensity after administration as compared with that before administration,"[2]; 100 μM, MIN6 on day 10 of culture, Ex 401 nm, Em 453 nm",increases significantly
